Laboratory results as given in ChEMBL document CHEMBL1158561, “Synthesis of 4-(3-biaryl)quinoline sulfones as potent liver X receptor agonists” (Bioorg Med Chem Lett, 2010).

How the values were obtained:
J774 = assay: cells; conditions: Mus musculus
[1] = Half life in human liver microsome; format: ADME; conditions: liver microsomes
HepG2 = assay: cells; conditions: Homo sapiens
[2] = Half life in rat liver microsome; format: ADME; conditions: liver microsomes
Huh-7 = assay: Upregulation of SREB1c mRNA level in human HuH7 cells; format: functional, cell-based
[3] = biological target: T1, Oxysterols receptor LXR-alpha (Homo sapiens, UniProt Q13133); assay: Displacement of [3H]T0901317 from LXRalpha ligand binding domain
T1 sequence (Q13133 whole entry): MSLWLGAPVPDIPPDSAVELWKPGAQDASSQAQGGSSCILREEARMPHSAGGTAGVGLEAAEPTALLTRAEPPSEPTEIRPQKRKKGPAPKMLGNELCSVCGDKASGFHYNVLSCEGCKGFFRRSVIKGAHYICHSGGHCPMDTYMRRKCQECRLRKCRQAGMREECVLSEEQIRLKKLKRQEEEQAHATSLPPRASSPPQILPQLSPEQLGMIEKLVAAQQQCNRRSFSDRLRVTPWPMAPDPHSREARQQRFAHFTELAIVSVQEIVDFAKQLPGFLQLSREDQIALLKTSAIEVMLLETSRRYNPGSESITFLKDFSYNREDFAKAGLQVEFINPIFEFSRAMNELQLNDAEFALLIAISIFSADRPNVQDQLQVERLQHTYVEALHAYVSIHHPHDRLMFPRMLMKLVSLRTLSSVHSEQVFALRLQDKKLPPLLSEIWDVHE

[4] = biological target: Oxysterols receptor LXR-beta (Homo sapiens, UniProt P55055); assay: Displacement of [3H]T0901317 from LXRbeta ligand binding domain
[5] = Oral bioavailability in C57 mouse at 10 mg/kg; format: ADME, organism-based; conditions: in vivo
[6] = AUC (0 to infinity) in C57 mouse at 10 mg/kg, po; format: ADME, organism-based; set-up: time infinity, dose 10 mg/kg, route oral; conditions: plasma
[7] = Tmax in C57 mouse at 10 mg/kg, po; format: ADME, organism-based; set-up: dose 10 mg/kg, route oral; conditions: in vivo
[8] = Half life in C57 mouse at 10 mg/kg, po; format: ADME, organism-based; set-up: dose 10 mg/kg, route oral; conditions: in vivo
[9] = Cmax in C57 mouse at 10 mg/kg, po; format: ADME, organism-based; set-up: dose 10 mg/kg, route oral; conditions: in vivo

Oxysterols receptor LXR-beta, sequence (P55055 whole entry, the tested form may be a part): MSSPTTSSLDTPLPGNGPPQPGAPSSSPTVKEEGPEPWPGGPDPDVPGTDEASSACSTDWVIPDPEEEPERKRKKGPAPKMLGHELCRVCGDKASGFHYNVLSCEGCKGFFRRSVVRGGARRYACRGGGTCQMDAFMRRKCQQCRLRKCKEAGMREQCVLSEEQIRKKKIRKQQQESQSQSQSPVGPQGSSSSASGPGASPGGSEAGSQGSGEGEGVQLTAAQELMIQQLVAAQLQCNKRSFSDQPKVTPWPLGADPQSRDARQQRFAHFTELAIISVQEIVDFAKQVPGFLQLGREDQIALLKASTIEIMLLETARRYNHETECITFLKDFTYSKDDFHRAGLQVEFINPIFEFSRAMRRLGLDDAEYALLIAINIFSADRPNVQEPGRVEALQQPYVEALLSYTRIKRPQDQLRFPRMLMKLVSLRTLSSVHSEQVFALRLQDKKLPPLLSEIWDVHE

Row | Compound | EC50 (J774) [nM] | half-life [1] [min] | EC50 (HepG2) [nM] | half-life [2] [min] | EC50 (Huh-7) [nM] | also measured
1 | CCS(=O)(=O)c1cccc(-c2cccc(-c3ccnc4c(C(F)(F)F)cccc34)c2)c1 | 156 | > 30 | 156 | > 30 | 521 | 
2 | Cc1cnc2c(C(F)(F)F)cccc2c1-c1cccc(-c2cc(S(C)(=O)=O)c(F)cc2F)c1 |  | > 30 |  | > 30 |  | 
3 | CS(=O)(=O)c1ccc(-c2cccc(-c3ccnc4c(C(F)(F)F)cccc34)c2)cc1 |  | > 30 |  | > 30 |  | IC50 [3]: > 1000 nM; IC50 [4]: > 1000 nM
4 | Cc1cnc2c(C(F)(F)F)cccc2c1-c1cccc(-c2ccc(F)c(S(C)(=O)=O)c2)c1 |  | > 30 |  | 19 |  | 
5 | CC(C)c1cnc2c(C(F)(F)F)cccc2c1-c1cccc(-c2cccc(S(C)(=O)=O)c2)c1 | 0.5 | > 30 | 0.5 | > 30 | 6 | 
6 | CCCc1cnc2c(C(F)(F)F)cccc2c1-c1cccc(-c2cccc(S(C)(=O)=O)c2)c1 | 0.4 | > 30 | 0.4 | > 30 | 8 | 
7 | Cc1ccc(-c2cccc(-c3c(C)cnc4c(C(F)(F)F)cccc34)c2)cc1S(C)(=O)=O |  | > 30 |  | 27 |  | 
8 | O=S(=O)(c1ccccc1)N(CC(F)(F)F)c1ccc(C(O)(C(F)(F)F)C(F)(F)F)cc1 [T091317] |  | > 30 | 107 | > 30 | 36 | 
9 | CCS(=O)(=O)c1cccc(-c2cccc(-c3c(C)cnc4c(C(F)(F)F)cccc34)c2)c1 | 190 | > 30 | 190 | > 30 | 250 | 
10 | CS(=O)(=O)c1cccc(-c2cccc(-c3c(Cc4ccccc4)cnc4c(C(F)(F)F)cccc34)c2)c1 |  |  |  | 16 |  | 
11 | CCc1cnc2c(C(F)(F)F)cccc2c1-c1cccc(-c2cccc(S(C)(=O)=O)c2)c1 | 0.7 | > 30 | 0.7 | > 30 | 8 | 
12 | Cc1cnc2c(C(F)(F)F)cccc2c1-c1cccc(-c2ccc(S(C)(=O)=O)cc2)c1 |  | > 30 |  | > 30 |  | IC50 [3]: > 1000 nM
13 | CS(=O)(=O)c1ccc(-c2cccc(-c3c(Cc4ccccc4)cnc4c(C(F)(F)F)cccc34)c2)cc1 | 571 | 27 | 571 | 7 | 571 | 
14 | CS(=O)(=O)c1cccc(-c2cccc(-c3ccnc4c(C(F)(F)F)cccc34)c2)c1 | 77 | > 30 | 77 | > 30 | 440 | bioavailability [5]: 100%; AUC(0-inf) [6]: 3010 ng·h/mL; Tmax [7]: 60 min; half-life [8]: 834 min; Cmax [9]: 106 ng/mL
15 | COc1ccc(-c2cccc(-c3c(C)cnc4c(C(F)(F)F)cccc34)c2)cc1S(C)(=O)=O |  | > 30 |  |  |  | IC50 [3]: > 1000 nM
16 | Cc1cnc2c(C(F)(F)F)cccc2c1-c1cccc(-c2cccc(S(C)(=O)=O)c2)c1 | 23 |  | 23 | > 30 | 52 | 
17 | CS(=O)(=O)c1cc(-c2cccc(-c3ccnc4c(C(F)(F)F)cccc34)c2)ccc1F | 140 | > 30 | 41 | 12 |  | 
18 | CS(=O)(=O)c1cc(-c2cccc(-c3ccnc4c(C(F)(F)F)cccc34)c2)c(F)cc1F | 11 | > 30 | 133 | > 30 | 132 | 
